Consider 15 molecules from article PMC8467647, “Identification of Small Molecule Inhibitors against Staphylococcus aureus Dihydroorotase via HTS” (International Journal of Molecular Sciences, 2021).

Series [1] concerns the target T1, SaDHOase (Staphylococcus aureus, UniProt Q5HGN1).
T1 construct: The full-length SaDHOase was expressed and purified following the cloning of the SaDHO gene; His-SUMO with HRV 3C protease site (N, cleaved yes); made in house; host or cells: E. coli BL21 (DE3)
T1 sequence (Q5HGN1 1-424): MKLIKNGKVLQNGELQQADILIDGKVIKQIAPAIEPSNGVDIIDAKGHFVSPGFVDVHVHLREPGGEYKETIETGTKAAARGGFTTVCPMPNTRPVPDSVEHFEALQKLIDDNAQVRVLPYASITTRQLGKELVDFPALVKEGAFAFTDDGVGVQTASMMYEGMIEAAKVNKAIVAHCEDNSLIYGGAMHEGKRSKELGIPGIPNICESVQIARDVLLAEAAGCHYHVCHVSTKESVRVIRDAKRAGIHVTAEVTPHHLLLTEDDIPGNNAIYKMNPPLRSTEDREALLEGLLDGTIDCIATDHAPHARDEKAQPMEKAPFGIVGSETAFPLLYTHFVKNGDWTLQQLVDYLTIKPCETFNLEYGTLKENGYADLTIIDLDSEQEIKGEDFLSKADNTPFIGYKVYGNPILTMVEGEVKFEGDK
In words: Competition SPR in the presence of 1 mM substrate Ca-asp. The format is binding. As for the experimental part:
(§1) The KD was determined using the response units during the equilibration phase of each concentration of the compound. […] In order to determine the mechanism of action, competition SPR studies were done in the presence of high concentration of the substrate Ca-asp (KM = 110 µM) (Figure 3A). Dose-response curve of the tightest binder (5) is shown as an example (Figure 3C).
(§2) For KD determination of analogs, DHOase was immobilized to flow channels 2, 3 and 4 at levels of 10,160 RU, 12,072 RU and 11,358 RU, respectively. 1 mM Ca-asp was additionally added to the binding buffer for a competition SPR. The sensorgrams were analyzed using BiaEvaluation software 2.0.3. All data was referenced to a blank channel RU signal prior to the fitting. The RU difference at each concentration was measured during the binding equilibration phase, and BiaEvaluation software v2.0.3 was used to fit the data to determine KD values. The RU values and corresponding concentrations were plotted using the single hyperbolic Function (1), where y is the response; ymax is the maximum response, and x is the compound concentration. (1) y=ymax·x/(KD+x)

Series [2] concerns the target T1, SaDHOase. Put plainly: SPR direct binding, steady-state affinity KD determination. The following applies: compound alone, immobilized SaDHOase, 25 °C, steady-state affinity fit. As for the experimental part: as §1
Purified histidine-tag cleaved DHOase was buffer exchanged to PBS (10 mM phosphate, pH 7.4, 2.7 mM KCl and 137 mM NaCl) for SPR. SPR was performed at 25 °C using a Biacore T200 instrument and a CM5 sensor chip (GE Healthcare). The flow channels were activated by a 1-ethyl-3-(3-dimethylaminopropyl) carbodiimide hydrochloride (EDC)/N-hydroxy succinimide (NHS) mixture. Flow channel 1 was left unmodified as a control. DHOase was diluted in 10 mM sodium acetate (pH 4.0) and immobilized to flow channels 2 and 3 at levels of 8596 RU and 8342 RU, respectively. Fragment solutions at 65 μM and 200 μM were applied to all three channels at a 30 μL/min flow rate. For KD determination, fragment solutions at increasing concentrations (0–400 μM at 2-fold dilution) were applied to all three channels at a 30 μL/min flow rate. The SPR binding buffer was PBS-P supplemented with 2% DMSO and 0.5 mM TCEP. All data was referenced with the blank channel RU values, and the sensorgrams were analyzed using Biacore T200 evaluation software v2.0.3. The response units at each concentration was measured during the equilibration phase for the steady-state affinity fittings.
as §2

Substrate in series [3]: NC(=O)N[C@@H](CC(=O)O)C(=O)O
In words: SaDHOase enzyme activity (substrate KM). It is filed as biochemical, Staphylococcus aureus. The note with it: other: substrate of SaDHOase. As for the experimental part: The full-length SaDHOase was expressed and purified following the cloning of the SaDHO gene according to previously published methods. Purified SaDHOase enzyme activity was measured and confirmed by two methods, one by observing the production of Ca-asp (reverse reaction) at a UV-Vis absorption of 540 nm (TSC-DAMO method) and the other with continuously monitoring reduction of DHO at 230 nm (Figure 1A). Enzyme rates were calculated using the measured slopes, path length of 0.44 cm and the extinction coefficient (ε) of DHO at 230 nm, 1.17 mM^−1 cm^−1 [14].

As to `NC1C(=O)Nc2ccc(Br)cc21` (stereo not shown) [Compound 1], the “Weakening of binding affinity in the presence of 1 mM Ca-asp” value in series [1] (KD with 1 mM Ca-asp vs compound alone) is on record as ~ 2.8 fold. Moreover, the Kd (in general, the equilibrium constant for the complex coming apart) in series [2] is 205 µM.

Take `Cn1c(SCC#N)nc2ccccc2c1=O` [Compound 2]: the “Effect of substrate Ca-asp on binding (mode of binding)” value in series [1] (competition SPR, 1 mM Ca-asp) is on record as “not affected by Ca-asp presence”. This molecule showed a Kd in series [2] of 98 µM.

Molecule `Cc1ccccc1CN1CCCN(C)CC1` [Compound 3] returned a Kd in series [2] of 156 µM.

As to `CCNC(=O)N1CCC(N)CC1` [Compound 4], the Kd in series [2] amounted to 274 µM.

`Cc1ccc(CN2CCC(O)CC2)cc1` [Compound 5] registered a Kd in series [2] of 48 µM.

Consider `OC1CCN(Cc2cccc(Cl)c2Cl)CC1` [Compound 6], for which the Kd in series [2] amounted to 90 ± 4 µM.

In series [2], `Cc1ccccc1CN1CCC(O)CC1` [Compound 7] showed a Kd of 41 ± 18 µM.

On to `Cc1ccc(C)c(CN2CCC(O)CC2)c1` [Compound 8], for which the dissociation constant (Kd) in series [2] was found to be 11 ± 5 µM.

`CCc1ccc(CN2CCC(O)CC2)cc1` [Compound 9]: binding in series [2] was put at a Kd of 125 ± 20 µM.

For the molecule `Cc1cccc(CN2CCC(O)CC2)c1` [Compound 10], in series [2], the KD result was “eliminates all bonding” and the Kd is over 400 µM.

As for `OC1CCN(Cc2cccc(C(F)(F)F)c2)CC1` [Compound 11], in series [2], the KD entry is given as “eliminates all bonding” and the Kd is over 400 µM.

Regarding `OC1CCN(Cc2ccc(C(F)(F)F)cc2)CC1` [Compound 12], binding in series [2] was characterised by a dissociation constant (Kd) of 48 ± 24 µM.

In series [2], `Cc1ccc(CN2CCCC(O)C2)c(C)c1` (stereo not shown) [Compound 13] registered a Kd of 77 ± 15 µM.

`Cc1cccc(CN2CCCC(CO)C2)c1` (stereo not shown) [Compound 14]: binding in series [2] was put at a Kd of 38 ± 5 µM.

B1: SaDHOase (Staphylococcus aureus subsp. aureus COL) (protein)
chain: T1 sequence (Q5HGN1 1-424)
notes: The full-length SaDHOase was expressed and purified following the cloning of the SaDHO gene; His-SUMO with HRV 3C protease site (N, cleaved yes); made in house; host or cells: E. coli BL21 (DE3)
B1: the Km (commonly the substrate concentration at which the rate is half of its maximum) in series [3] is on record as 110 µM.
